US20070015780A1, “Method of treating cancer with azaspirane compositions” (priority 2003, published 2007)
Where a name gives a salt, the structure may show the parent alone.

Assay: Excretion and recovery of radioactivity after single oral administration, target dose 1 mg free base/kg
Type: in vivo, male Sprague Dawley rats
Parameters: Excretion of Radioactivity, Urine / Excretion of Radioactivity, Cage Wash: unit not given beside the values
Text: [^14C] N,N,-diethyl-8,8-dipropyl-2-azaspiro[4,5]decane-2-propanamine dimaleate salt, (“Compound II”) with a specific activity of 91 uCi/mg and chemical purity >99%, and non-radiolabeled dimaleate salt of N,N,-diethyl-8,8-dipropyl-2-azaspiro[4,5]decane-2-propanamine dimaleate (Compound 1) chemical purity >98%, respectively, were used in this study. The site of the radiocarbon label in Compound II is depicted by an asterisk in Formula II. The non-radiolabeled material was used for reference purposes. The radiolabeled material was stored at ca −80° C. in the dark and the non-radiolabeled material at ca −20° C. in the dark.
Three healthy male Sprague Dawley rats (Crl:CD(SD)BR), age ca 8-9 weeks, body weights at dosing 237-255 g, were supplied by Charles River (UK) Limited. The animals were housed in holding cages suitable for this species for 8 days prior to use. SDS Rat and Mouse Maintenance Diet No. 1, (Special Diets Services, Witham Essex), and mains quality water were available ad libitum throughout. The diet and water supplied to the animals were routinely analyzed for quality and no problems were detected. Holding and study areas had automatic control of light cycle and temperature. The actual range of temperature measured during the study was 17-25° C. with relative humidity measured at 60%.
The dose was prepared for oral administration on the day of dosing. […]
For each rat, an aliquot of the dose solution was administered orally by gavage. […] For each dose, the combined weight of dose and dosing equipment were recorded prior to dosing and the discharged dosing equipment was weighed after dosing. The concentration of radioactive material in each dose solution was also determined.
Immediately following dosing, the rats were placed into all glass metabolism cages suitable for the quantitative collection of excreta and expired air. All samples were collected into individual, uniquely labeled containers.
[…] The collection containers were cooled by solid CO2 during the first 48 hours after dosing.
[…] Collection containers were cooled by solid CO2 during the first 48 hours.
At the time of each feces collection, each cage was washed with water (ca 750 mL) and the washings were retained for radioassay. During the periods 0-24 h and 24-48 hours after dosing, expired air was passed through 2 serial traps containing ethanolamine:ethoxyethaonol (3:7, v/v) in order to effect the removal of CO2. The trap solvent was sampled for radioassay at the end of each collection period.
At 168 hours post dose, each animal was killed by CO2 narcosis and cervical dislocation. Gastrointestinal tracts were removed and retained separately from the carcasses in preparation for radioassay.
Duplicate aliquots of urine (ca 0.3 mL) and cage washings (ca 1 mL) were dispensed, diluted to 1 mL with distilled water (if considered necessary) and mixed with Quickzint 1 scintillation fluid (10 mL; Zinsser Analytic Maidenhead, UK).
Feces were homogenised in 1 to 2 volumes of water with the sample and homogenate weight recorded. Duplicate aliquots (ca 0.3 ) were taken from each sample and dispensed onto combustopads contained in combustocones (Canberra Packard Limited, Pangbourne, UK). When dry, these samples were combusted using a Packard Tri-Carb 306 Automatic Sample Oxidiser. The resultant ^14CO2 generated was collected by absorption in Carbo-Sorb® (8 mL; Canberra Packard Limited) to which Permafluor®E^+ scintillation fluid (10 mL; Canberra Packard Limited) was added.
For each rat, the carcass and gastro-intestinal tract with contents were solubilised in Soluene 350 (Canberra Packard). When dissolved, portions of the digest (ca 0.1 mL) were taken for liquid scintillation spectrometry. The volume was made up to 1 mL by the addition of methanol then 10 mL Quickzint was added and the samples counted as for the other liquid samples. […]

Compound: CCCC1(CCC)CCC2(CCN(CCCN(CC)CC)C2)CC1 [Compound II, [^14C] N,N,-diethyl-8,8-dipropyl-2-azaspiro[4,5]decane-2-propanamine dimaleate salt]
- Excretion of Radioactivity, Urine (0-6 hours, #1 male): 0.1
- Excretion of Radioactivity, Urine (0-6 hours, #2 male): 0.1
- Excretion of Radioactivity, Urine (0-6 hours, #3 male): 0.1
- Excretion of Radioactivity, Cage Wash (0-24 hours, #1 male): 0.1
- Excretion of Radioactivity, Feces (0-24 hours, #1 male): 18.2
- Excretion of Radioactivity, Cage Wash (0-24 hours, #2 male): 0.1
- Excretion of Radioactivity, Feces (0-24 hours, #2 male): 14.7
- Excretion of Radioactivity, Cage Wash (0-24 hours, #3 male): *<0.1
- Excretion of Radioactivity, Feces (0-24 hours, #3 male): 17.7
- Excretion of Radioactivity, Cage Wash (0-24 hours, Mean): ^+0.1
- Excretion of Radioactivity, Feces (0-24 hours, Mean): 16.9
- Dose recovered in expired air (0-48 hours): Less than 0.2 % of the dose
- Excretion of Radioactivity, Cage Wash (0-168 hours, #1 male): 0.7
- Excretion of Radioactivity, Feces (0-168 hours, #1 male): 64.0
- Excretion of Radioactivity, Urine (0-168 hours, #1 male): 6.9
- Excretion of Radioactivity, Cage Wash (0-168 hours, #2 male): 1.0
- Excretion of Radioactivity, Feces (0-168 hours, #2 male): 65.7
- Excretion of Radioactivity, Urine (0-168 hours, #2 male): 8.9
- Excretion of Radioactivity, Cage Wash (0-168 hours, #3 male): 1.3
- Excretion of Radioactivity, Feces (0-168 hours, #3 male): 66.7
- Excretion of Radioactivity, Urine (0-168 hours, #3 male): 9.8
- Excretion of Radioactivity, Cage Wash (0-168 hours, Mean): 1.0
- Excretion of Radioactivity, Feces (0-168 hours, Mean): 65.5
- Excretion of Radioactivity, Urine (0-168 hours, Mean): 8.5
- Excretion of Radioactivity, Urine (6-24 hours, #1 male): 0.4
- Excretion of Radioactivity, Urine (6-24 hours, #2 male): 0.5
- Excretion of Radioactivity, Urine (6-24 hours, #3 male): 0.5
- Excretion of Radioactivity, Urine (6-24 hours, Mean): 0.5
- Excretion of Radioactivity, Cage Wash (24-48 hours, #1 male): 0.1
- Excretion of Radioactivity, Feces (24-48 hours, #1 male): 16.3
- Excretion of Radioactivity, Urine (24-48 hours, #1 male): 1.0
- Excretion of Radioactivity, Cage Wash (24-48 hours, #2 male): <0.1
- Excretion of Radioactivity, Feces (24-48 hours, #2 male): 17.2
- Excretion of Radioactivity, Urine (24-48 hours, #2 male): 1.4
- Excretion of Radioactivity, Cage Wash (24-48 hours, #3 male): 0.1
- Excretion of Radioactivity, Feces (24-48 hours, #3 male): 14.5
- Excretion of Radioactivity, Urine (24-48 hours, #3 male): 1.4
- Excretion of Radioactivity, Cage Wash (24-48 hours, Mean): 0.1
- Excretion of Radioactivity, Feces (24-48 hours, Mean): 16.0
- Excretion of Radioactivity, Urine (24-48 hours, Mean): 1.3
- Excretion of Radioactivity, Cage Wash (48-72 hours, #1 male): <0.1
- Excretion of Radioactivity, Feces (48-72 hours, #1 male): 10.0
- Excretion of Radioactivity, Urine (48-72 hours, #1 male): 1.2
- Excretion of Radioactivity, Cage Wash (48-72 hours, #2 male): 0.2
- Excretion of Radioactivity, Feces (48-72 hours, #2 male): 15.2
- Excretion of Radioactivity, Urine (48-72 hours, #2 male): 1.5
- Excretion of Radioactivity, Cage Wash (48-72 hours, #3 male): 0.2
- Excretion of Radioactivity, Feces (48-72 hours, #3 male): 12.7
- Excretion of Radioactivity, Urine (48-72 hours, #3 male): 1.7
- Excretion of Radioactivity, Cage Wash (48-72 hours, Mean): 0.1
- Excretion of Radioactivity, Feces (48-72 hours, Mean): 12.6
- Excretion of Radioactivity, Urine (48-72 hours, Mean): 1.5
- Excretion of Radioactivity, Cage Wash (72-96 hours, #1 male): 0.1
- Excretion of Radioactivity, Feces (72-96 hours, #1 male): 7.5
- Excretion of Radioactivity, Urine (72-96 hours, #1 male): 1.3
- Excretion of Radioactivity, Cage Wash (72-96 hours, #2 male): 0.2
- Excretion of Radioactivity, Feces (72-96 hours, #2 male): 7.8
- Excretion of Radioactivity, Urine (72-96 hours, #2 male): 1.6
- Excretion of Radioactivity, Cage Wash (72-96 hours, #3 male): 0.3
- Excretion of Radioactivity, Feces (72-96 hours, #3 male): 8.0
- Excretion of Radioactivity, Urine (72-96 hours, #3 male): 2.0
- Excretion of Radioactivity, Cage Wash (72-96 hours, Mean): 0.2
